Results as given in ChEMBL document CHEMBL5465560, “Selectivity Literature for EUbOPEN Chemogenomic Library” (2024).

Experiments:
[1] = molecular target: Casein kinase I isoform gamma-3 (Homo sapiens) (UniProt Q9Y6M4); test: Selectivity interaction (KinomeScan (DiscoverX)) EUB0000229b CSNK1G3; conditions: at 10 µM
[2] = molecular target: T1, Dual specificity mitogen-activated protein kinase kinase 5 (Homo sapiens) (UniProt Q13163); test: Selectivity interaction (KinomeScan (DiscoverX)) EUB0000092b MAP2K5; conditions: at 10 µM
T1 sequence (whole entry): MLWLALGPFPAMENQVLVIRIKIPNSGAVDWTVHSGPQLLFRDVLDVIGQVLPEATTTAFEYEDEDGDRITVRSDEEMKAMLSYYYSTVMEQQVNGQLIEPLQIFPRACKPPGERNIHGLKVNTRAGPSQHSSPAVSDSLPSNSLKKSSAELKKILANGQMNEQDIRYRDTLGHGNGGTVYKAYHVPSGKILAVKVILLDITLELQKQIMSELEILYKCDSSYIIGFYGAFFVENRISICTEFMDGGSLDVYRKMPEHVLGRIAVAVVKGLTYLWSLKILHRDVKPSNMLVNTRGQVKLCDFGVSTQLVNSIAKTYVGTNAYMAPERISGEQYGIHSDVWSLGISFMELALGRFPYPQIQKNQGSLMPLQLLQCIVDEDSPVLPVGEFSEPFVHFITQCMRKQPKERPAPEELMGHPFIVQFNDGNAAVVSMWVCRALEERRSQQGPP

[3] = molecular target: Cyclin-dependent kinase 3 (Homo sapiens) (UniProt Q00526); test: Selectivity interaction (KinomeScan (DiscoverX)) EUB0000655a CDK3; conditions: at 10 µM
Chain of Cyclin-dependent kinase 3 (Homo sapiens) (Q00526 whole entry, looked up): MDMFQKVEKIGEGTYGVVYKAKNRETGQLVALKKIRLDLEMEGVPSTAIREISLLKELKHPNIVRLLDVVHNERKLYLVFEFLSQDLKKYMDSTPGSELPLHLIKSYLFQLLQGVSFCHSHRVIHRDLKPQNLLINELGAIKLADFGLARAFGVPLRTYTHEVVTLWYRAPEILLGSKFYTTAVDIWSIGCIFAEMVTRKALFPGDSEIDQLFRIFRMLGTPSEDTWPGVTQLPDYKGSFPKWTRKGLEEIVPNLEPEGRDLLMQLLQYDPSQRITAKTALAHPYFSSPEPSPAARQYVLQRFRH

[4] = molecular target: Homeodomain-interacting protein kinase 3 (Homo sapiens, UniProt Q9H422); test: Selectivity interaction (KinomeScan (DiscoverX)) EUB0000655a HIPK3; conditions: at 10 µM
Chain of Homeodomain-interacting protein kinase 3 (Q9H422 whole entry, looked up): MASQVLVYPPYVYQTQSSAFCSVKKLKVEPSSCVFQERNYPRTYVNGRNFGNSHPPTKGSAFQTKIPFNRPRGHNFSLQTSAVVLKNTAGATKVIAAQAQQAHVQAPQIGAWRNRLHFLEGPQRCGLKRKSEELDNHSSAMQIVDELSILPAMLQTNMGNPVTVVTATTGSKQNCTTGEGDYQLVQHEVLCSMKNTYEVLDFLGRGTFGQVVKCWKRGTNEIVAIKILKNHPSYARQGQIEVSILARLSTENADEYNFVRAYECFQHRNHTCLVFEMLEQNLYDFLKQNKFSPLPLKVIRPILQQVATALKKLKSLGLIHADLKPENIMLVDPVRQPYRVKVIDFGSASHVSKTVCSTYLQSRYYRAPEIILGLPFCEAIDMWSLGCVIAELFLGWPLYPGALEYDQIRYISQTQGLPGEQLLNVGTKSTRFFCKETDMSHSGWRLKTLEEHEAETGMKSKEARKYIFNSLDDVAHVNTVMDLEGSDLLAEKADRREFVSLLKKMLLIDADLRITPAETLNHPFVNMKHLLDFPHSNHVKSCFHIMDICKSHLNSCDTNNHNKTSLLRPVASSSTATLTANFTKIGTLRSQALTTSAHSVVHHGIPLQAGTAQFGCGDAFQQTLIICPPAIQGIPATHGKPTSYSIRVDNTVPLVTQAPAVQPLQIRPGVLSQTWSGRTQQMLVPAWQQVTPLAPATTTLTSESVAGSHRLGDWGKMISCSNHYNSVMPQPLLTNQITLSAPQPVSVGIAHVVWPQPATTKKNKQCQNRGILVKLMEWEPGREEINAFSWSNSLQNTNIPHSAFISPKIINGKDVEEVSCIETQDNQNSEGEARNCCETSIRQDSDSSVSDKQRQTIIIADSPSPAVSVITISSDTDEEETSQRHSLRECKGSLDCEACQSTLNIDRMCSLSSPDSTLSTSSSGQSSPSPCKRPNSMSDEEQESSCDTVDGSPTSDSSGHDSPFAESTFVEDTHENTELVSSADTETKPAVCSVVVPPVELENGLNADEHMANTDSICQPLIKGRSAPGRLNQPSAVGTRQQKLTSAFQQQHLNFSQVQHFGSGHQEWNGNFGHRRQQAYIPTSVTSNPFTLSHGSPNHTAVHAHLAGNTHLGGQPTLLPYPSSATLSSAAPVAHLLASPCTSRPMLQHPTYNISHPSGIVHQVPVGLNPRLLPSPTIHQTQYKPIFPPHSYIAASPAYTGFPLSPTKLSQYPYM

[5] = molecular target: T2, Tyrosine-protein kinase receptor TYRO3 (Homo sapiens) (UniProt Q06418); test: Selectivity interaction (ProQinase) EUB0000171b TYRO3
T2 sequence (whole entry): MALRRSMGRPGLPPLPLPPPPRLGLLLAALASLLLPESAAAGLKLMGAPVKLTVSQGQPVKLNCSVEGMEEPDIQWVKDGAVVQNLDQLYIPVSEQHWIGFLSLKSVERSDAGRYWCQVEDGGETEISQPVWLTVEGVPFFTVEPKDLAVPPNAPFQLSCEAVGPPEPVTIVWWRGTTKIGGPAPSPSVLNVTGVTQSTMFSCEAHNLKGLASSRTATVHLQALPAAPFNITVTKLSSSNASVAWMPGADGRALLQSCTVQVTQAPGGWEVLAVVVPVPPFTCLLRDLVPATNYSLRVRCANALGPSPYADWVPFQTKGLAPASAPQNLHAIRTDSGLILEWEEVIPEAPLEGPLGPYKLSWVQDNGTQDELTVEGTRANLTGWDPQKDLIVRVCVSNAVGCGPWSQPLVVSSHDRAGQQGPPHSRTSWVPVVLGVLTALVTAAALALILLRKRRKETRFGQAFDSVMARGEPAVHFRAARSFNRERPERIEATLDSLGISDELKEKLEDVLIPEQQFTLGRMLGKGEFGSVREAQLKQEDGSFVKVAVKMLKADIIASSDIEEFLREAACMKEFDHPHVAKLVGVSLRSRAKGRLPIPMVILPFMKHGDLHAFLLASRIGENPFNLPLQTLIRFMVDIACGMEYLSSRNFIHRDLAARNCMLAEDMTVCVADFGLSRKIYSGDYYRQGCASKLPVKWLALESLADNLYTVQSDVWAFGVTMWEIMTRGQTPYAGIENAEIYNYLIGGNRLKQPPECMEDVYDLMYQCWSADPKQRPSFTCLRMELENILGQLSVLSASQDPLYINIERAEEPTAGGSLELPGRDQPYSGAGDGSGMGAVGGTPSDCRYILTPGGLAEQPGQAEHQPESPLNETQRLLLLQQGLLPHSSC

[6] = molecular target: Hepatocyte growth factor receptor (Homo sapiens, UniProt P08581); conditions: at 10 µM
Chain of Hepatocyte growth factor receptor (P08581 whole entry): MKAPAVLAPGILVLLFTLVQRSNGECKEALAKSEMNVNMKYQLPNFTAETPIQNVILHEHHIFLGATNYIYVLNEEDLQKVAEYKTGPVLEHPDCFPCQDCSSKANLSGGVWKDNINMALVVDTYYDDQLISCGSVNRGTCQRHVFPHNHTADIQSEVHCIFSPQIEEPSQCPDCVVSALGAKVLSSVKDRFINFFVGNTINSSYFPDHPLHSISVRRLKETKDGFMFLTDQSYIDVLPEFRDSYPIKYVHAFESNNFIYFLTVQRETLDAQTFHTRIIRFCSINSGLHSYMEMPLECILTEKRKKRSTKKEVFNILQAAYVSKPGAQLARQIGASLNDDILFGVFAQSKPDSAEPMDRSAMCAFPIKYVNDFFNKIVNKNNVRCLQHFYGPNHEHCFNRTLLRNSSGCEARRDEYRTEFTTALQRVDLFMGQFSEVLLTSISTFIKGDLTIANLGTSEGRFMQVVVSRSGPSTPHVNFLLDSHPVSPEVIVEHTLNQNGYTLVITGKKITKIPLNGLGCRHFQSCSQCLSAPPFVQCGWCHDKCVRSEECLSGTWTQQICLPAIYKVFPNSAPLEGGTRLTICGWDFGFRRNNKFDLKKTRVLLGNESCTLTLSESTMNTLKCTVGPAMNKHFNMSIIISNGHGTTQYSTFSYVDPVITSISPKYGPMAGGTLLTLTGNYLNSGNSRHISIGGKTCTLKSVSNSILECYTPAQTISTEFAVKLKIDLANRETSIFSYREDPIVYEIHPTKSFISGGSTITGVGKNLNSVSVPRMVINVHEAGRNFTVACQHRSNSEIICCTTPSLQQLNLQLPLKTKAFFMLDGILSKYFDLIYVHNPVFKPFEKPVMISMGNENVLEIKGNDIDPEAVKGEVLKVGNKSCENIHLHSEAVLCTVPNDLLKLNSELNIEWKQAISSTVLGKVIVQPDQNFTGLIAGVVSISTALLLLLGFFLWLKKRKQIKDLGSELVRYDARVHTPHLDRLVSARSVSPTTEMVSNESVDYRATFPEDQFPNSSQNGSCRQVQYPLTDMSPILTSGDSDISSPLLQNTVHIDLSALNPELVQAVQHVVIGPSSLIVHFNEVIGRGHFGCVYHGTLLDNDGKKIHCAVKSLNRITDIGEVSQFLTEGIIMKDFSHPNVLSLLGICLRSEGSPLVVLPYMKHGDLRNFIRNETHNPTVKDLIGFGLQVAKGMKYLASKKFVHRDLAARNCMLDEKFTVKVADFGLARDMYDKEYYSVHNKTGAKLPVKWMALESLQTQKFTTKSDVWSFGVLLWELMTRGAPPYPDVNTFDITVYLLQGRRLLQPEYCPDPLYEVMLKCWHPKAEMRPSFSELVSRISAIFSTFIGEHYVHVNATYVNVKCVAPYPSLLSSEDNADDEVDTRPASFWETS

Ephrin type-A receptor 4 = Ephrin type-A receptor 4 (Homo sapiens, UniProt P54764); test: Selectivity interaction (SelectScreen profiling (Invitrogen)) EUB0000607a EPHA4; conditions: at 2 µM
[7] = molecular target: T3, Muscle, skeletal receptor tyrosine-protein kinase (Homo sapiens) (UniProt O15146); test: Selectivity interaction (KinomeScan (DiscoverX)) EUB0000695a MUSK; conditions: at 100 nM
T3 sequence (whole entry): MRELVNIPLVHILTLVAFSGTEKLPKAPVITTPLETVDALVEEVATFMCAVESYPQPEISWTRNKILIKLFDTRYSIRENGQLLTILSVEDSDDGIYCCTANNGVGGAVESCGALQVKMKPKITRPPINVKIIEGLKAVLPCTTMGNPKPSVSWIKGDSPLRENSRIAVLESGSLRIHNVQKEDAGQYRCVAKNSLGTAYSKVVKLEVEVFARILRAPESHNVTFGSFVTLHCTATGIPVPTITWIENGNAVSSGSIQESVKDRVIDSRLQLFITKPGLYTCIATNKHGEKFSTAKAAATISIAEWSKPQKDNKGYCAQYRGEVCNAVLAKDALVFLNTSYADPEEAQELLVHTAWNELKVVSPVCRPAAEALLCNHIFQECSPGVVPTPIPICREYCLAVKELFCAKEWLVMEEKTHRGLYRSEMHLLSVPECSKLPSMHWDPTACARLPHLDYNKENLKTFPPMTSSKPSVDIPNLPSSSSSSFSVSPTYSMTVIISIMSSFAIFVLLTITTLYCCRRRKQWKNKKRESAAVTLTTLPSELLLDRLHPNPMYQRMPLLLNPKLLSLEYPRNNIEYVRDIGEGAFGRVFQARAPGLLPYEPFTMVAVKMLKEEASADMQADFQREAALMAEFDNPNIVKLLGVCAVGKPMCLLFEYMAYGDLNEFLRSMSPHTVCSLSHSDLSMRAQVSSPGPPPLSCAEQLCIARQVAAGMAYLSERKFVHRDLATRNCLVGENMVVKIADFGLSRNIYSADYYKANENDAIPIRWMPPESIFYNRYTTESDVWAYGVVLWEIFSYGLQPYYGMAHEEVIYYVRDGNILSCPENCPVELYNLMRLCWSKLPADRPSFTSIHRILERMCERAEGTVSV

[8] = molecular target: Tyrosine-protein kinase Fgr (Homo sapiens) (UniProt P09769); test: Selectivity interaction (Ambit KINOMEscan and KiNATiv profiling in Jurkat cells) EUB0000090b FGR; assay type: cell-based; conditions: at 1 µM
Chain of Tyrosine-protein kinase Fgr (Homo sapiens) (P09769 2-529 limits assumed): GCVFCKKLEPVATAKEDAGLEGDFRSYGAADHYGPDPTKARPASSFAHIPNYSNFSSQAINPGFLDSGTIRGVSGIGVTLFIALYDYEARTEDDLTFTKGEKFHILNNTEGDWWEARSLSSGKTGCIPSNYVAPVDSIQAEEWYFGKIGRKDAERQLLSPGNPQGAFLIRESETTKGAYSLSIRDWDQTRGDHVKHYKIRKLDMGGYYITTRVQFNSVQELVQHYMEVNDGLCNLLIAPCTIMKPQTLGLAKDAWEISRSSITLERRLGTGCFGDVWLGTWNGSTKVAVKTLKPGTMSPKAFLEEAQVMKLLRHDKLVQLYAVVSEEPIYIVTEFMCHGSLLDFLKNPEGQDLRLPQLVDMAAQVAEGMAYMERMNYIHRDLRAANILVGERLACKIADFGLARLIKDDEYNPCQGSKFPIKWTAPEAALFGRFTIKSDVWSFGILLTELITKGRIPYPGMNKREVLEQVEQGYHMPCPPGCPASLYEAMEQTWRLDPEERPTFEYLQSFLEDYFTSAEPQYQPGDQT

[9] = molecular target: Ribosomal protein S6 kinase alpha-4 (Homo sapiens) (UniProt O75676); test: Selectivity interaction (ActivX KiNativ screen (ex vivo kinase selectivity in human PBMCs)) EUB0001619a RPS6KA4; assay type: cell-based; conditions: PBMC, at 1 µM
Chain of Ribosomal protein S6 kinase alpha-4 (Homo sapiens) (O75676 whole entry, looked up): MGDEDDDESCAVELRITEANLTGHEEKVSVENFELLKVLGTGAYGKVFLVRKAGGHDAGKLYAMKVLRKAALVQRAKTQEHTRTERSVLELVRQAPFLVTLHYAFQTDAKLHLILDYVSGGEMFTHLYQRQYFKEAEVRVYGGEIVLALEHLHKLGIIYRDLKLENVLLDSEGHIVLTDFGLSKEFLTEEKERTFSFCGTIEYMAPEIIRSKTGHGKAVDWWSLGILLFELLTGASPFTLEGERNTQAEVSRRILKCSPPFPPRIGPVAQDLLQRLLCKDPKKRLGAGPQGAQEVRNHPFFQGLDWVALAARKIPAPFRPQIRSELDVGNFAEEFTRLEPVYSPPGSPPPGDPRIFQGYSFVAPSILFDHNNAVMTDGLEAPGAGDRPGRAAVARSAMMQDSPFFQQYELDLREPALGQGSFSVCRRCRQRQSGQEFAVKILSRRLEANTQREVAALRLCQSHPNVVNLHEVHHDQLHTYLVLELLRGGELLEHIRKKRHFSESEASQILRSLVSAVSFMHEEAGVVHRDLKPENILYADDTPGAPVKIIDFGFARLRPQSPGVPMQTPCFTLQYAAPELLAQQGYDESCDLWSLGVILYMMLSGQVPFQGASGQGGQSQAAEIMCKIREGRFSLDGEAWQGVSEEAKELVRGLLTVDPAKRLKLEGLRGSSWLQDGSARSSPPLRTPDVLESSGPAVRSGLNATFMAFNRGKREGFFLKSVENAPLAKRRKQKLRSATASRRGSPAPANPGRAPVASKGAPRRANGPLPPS

Chain of Casein kinase I isoform gamma-3 (Homo sapiens) (Q9Y6M4 whole entry, looked up, canonical isoform): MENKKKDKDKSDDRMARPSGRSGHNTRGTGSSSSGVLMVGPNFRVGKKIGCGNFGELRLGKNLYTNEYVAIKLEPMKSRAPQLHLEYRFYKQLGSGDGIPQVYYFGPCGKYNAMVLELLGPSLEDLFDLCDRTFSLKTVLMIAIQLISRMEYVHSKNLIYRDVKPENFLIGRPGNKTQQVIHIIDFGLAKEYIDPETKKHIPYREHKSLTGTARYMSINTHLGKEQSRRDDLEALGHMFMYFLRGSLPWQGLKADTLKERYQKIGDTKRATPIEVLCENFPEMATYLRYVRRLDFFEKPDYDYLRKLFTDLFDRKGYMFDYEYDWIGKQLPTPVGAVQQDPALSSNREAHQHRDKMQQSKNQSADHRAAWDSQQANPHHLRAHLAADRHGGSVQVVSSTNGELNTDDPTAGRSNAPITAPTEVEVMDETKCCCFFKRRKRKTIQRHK

`COc1cc(N(C)c2ccnc3ccc(C(F)(F)F)cc23)cc(OC)c1OC` was tested, and the % binding [1] was 86%.

Work on `CCC(=O)N1CCN(c2ccc(-n3c(=O)ccc4cnc5ccc(-c6cnc7ccccc7c6)cc5c43)cc2C(F)(F)F)CC1` yielded a % of control [2] of 100%.

Work on `CN(C)CCOc1ccc(-c2nc(-c3ccncc3)c(-c3ccc4c(c3)CC/C4=N\O)[nH]2)cc1` yielded a % of control [3] of 98% and a % of control [4] of 62%.

In the case of `C=CC(=O)Nc1cccc(C(=O)Nc2ccc(Nc3cc(-c4[nH]c(SC)nc4C)ccn3)cc2)c1`, the % of control ([5]; at 1 µM) is reported as 100% and the % of control ([5]; at 5 µM) is reported as 86%.

With `Cc1cc([C@@H](C)Nc2ccccc2C(=O)O)c2nc(N3CCOCC3)cc(=O)n2c1` [AZD-6482] the % of control [6] was 86%.

`CNC(=O)Nc1ccc(-c2nc(N3CC4CCC(C3)O4)c3cnn(C4CCC5(CC4)OCCO5)c3n2)cc1` showed a % of inhibition (Ephrin type-A receptor 4) of -1%.

Work on `Cc1cc(F)c(C(=O)Nc2cccc(-c3nncn3C(C)C)n2)cc1-n1cnc(C2CC2)c1` yielded a % of control [7] of 91%.

For `CN(C)C/C=C/C(=O)Nc1ccc(C(=O)N2CCCC(Nc3ncc(Cl)c(-c4c[nH]c5ccccc45)n3)C2)cc1` (stereo unspecified), the % of control [8] was 92%.

`N#Cc1cccc(-c2c[nH]c3ncnc(N4CCOCC4)c23)c1` was tested, and the % of inhibition [9] was 20%.
